Results from US9316631B1, “ER-stress inducing compounds and methods of use thereof” (Whitehead Institute for Biomedical Research, priority 2012, dated 2016).
Like-named read-outs stand apart in the source and are kept apart here.

How the values were obtained:
[1] = test system: IDMS cells (HMLE_shEcad, HMLE_Twist) versus control HMLE_shGFP cells; experiment: Dose-response cell survival, ATP-based luminescence assay, HMLE cells; set-up: species or system human; details: for killing of IDMS cells relative to control HMLE cells: 3 days, FIG. 3B, 3C
Method: (B) Dose response curves of HMLE_shGFP, HMLE_shEcad and HMLE_Twist cells treated with various concentrations of Cmp302, Cmp308 and Dev4, respectively for 3 days. Cell survival was determined using an ATP-based luminescence assay.
(B) Dose-response curves of HMLE_shGFP, HMLE_shEcad and HMLE_Twist cells treated with various concentrations of Thapsigargin, DTT and A23187 for 3 days. Cell survival was determined using an ATP-based luminescence assay.
(B) Dose-response curves indicating viability of Dev2-treated cell lines
(§1) Cells (3000/well) were plated in 100 μl per well in 96-well plates. One day (24 hr) after seeding, compounds were added in 8 different doses at three replicates per dose for each cell line. Cell viability was measured after 72 hr with the CellTiter-Glo […] Assay (Promega). Paclitaxel, Doxorubicin, Tunicamycin, Thapsigargin, A23187 and DTT were purchased from Sigma Aldrich. Cmp302 and Cmp308 were purchased from Biointerscreen.

[2] = test system: UPR signaling in HMLER_shGFP and HMLER_Twist cells; experiment: UPR signaling (Western blot, XBP1 RT-PCR, ATF6 reporter, qPCR); format: cell-based, human
Method: (A) Expression of UPR pathway components in HMLER_shGFP and HMLER_Twist cells that were treated with Dev2, Cmp302, Dev4 or DMSO solvent for 6 h. Western blot analysis for phospho-eIF2α, total eIF2α, CHOP and β-Tubulin. RT-PCR analysis of XBP1 and XBP1 splice variant and GAPDH transcripts.
(D) Western blot analysis of HMLER_shGFP and HMLER_Twist cells treated with vehicle (DMSO), DTT or A23187 for 4 h and probed for p-eIF2α, total eIF2α, CHOP and β-Tubulin (loading control). RT-PCR analysis of XBP1 and XBP1 splice variant and GAPDH transcripts.
(E) Western blot analysis of HMLER_shGFP and HMLER_Twist cells treated with vehicle (DMSO), Tunicamycin or Thapsigargin for 4 h and probed for p-eIF2α, total eIF2α, CHOP and β-Tubulin (loading control). RT-PCR analysis of XBP1 and XBP1 splice variant and GAPDH transcripts.
Reporter activity for each cell line was normalized relative to DMSO treatment.
BIP expression was normalized relative to GAPDH for each sample.
(C) ATF6 activation of HMLER_shGFP and HMLER_Twist cells in response to Tunicamycin, Thapsigargin, DTT and A23187 were measured by ATF6 reporter assay. Reporter activity for each cell line was normalized relative to DMSO treatment.
(D) qPCR analysis for BIP expression in HMLER_shGFP and HMLER_Twist cells treated with Thapsigargin and DTT. BIP expression was normalized relative to GAPDH for each sample.
(E) qPCR analysis for expression of GADD34 in HMLER_shGFP and HMLER_Twist cells treated with Thapsigargin and DTT. GADD34 expression was normalized relative to GAPDH for each sample.
Western blotting was performed as previously described (Gupta et al., 2009). Antibodies used for immunoblotting were as follows: E-cadherin (BD Transduction), Fibronectin (Abcam), Actin, Cytokeratin 8/18, PERK, eIF2α, peIF2α, CHOP, Caspase-3 and Bip (Cell Signal Technology).
p5xATF6-GL3 and hRluc constructs were obtained from Addgene (plasmids 11976 and 24348, provided by Drs. Ron Prywes and Liqun Luo, resp.). 24 hours after co-transfection of 0.3 μg p5xATF6-GL3 and 0.05 μg hRluc plasmids, cells were treated with indicated compounds for another 6 hours, and ATF6 activity was measured by a dual luciferase assay (Promega).

[3] = test system: protein secretion of HMLE cells; experiment: 35S-methionine/cysteine labeling of secreted proteins, HMLE cells; format: cell-based, human; details: control experiment; data not shown
Method: (F) Autoradiograph showing ^35S-methionine/cysteine-labeled secreted proteins in IDMS (HMLE_shEcad, HMLE_Twist) and control (HMLE_shGFP) cells. Secreted proteins were harvested at the indicated time points. Quantification of signal in each lane is provided in arbitrary units. The indicated proteins were identified by mass-spectrometry.
(§2) Equal numbers of cells were cultured in the presence of ^35S-methionine/cysteine in medium with reduced methionine/cysteine content and minimal serum. At the indicated timepoints, aliquots of medium were extracted for analysis. Medium was centrifuged at 800×g for 2 min to pellet any whole cell contaminants. Equal volume of medium was reduced in loading buffer, separated by SDS-PAGE and analyzed by autoradiography.
To determine whether overall protein secretion was elevated in IDMS cells, total protein synthesis and secretion was measured using ^35S-methionine/cysteine. Labeled proteins secreted by cells into the culture medium (“secretome”) were visualized by gel electrophoresis and autoradiography. After three hours of ^35S-methionine/cysteine labeling, we observed a 9.6-fold and 13.7-fold increase in the secretome of IDMS cells (HMLE_shEcad and HMLE_Twist, resp.) relative to the control epithelial cells (FIG. 4F).

[4] = test system: HMLER_shGFP and HMLER_Twist cells; experiment: Viability with thapsigargin in presence or absence of salubrinal; format: cell-based, human; details: 10 μM salubrinal, 3 days; FIG. 6F
Method: (F) Relative viability of HMLER_shGFP and HMLER_Twist cells treated with increasing doses of thapsigargin in the presence or absence of 10 μM salubrinal for 3 days. Cell viability was assayed with an ATP-based luminescence assay.
as §1

[5] = test system: HMLE_Twist_GFP / HMLE_shEcad_GFP cells mixed 1:1 with HMLE_shGFP_dsRed cells; experiment: Co-culture of GFP-labeled IDMS cells with dsRed-labeled control epithelial cells; format: cell-based, human; details: 1:1 co-culture, 5 days treatment; FIGS. 1D and E
Method: (D) Representative fluorescence images of HMLE_shGFP_dsRed and HMLE_Twist_GFP cells were mixed in a 1:1 ratio and treated with 5 nM Paclitaxel, 2 μM Cmp302, 2 μM Cmp308 or DMSO control. Images after 5 days of treatment are shown. Scale bar: 50 μm
(E) Quantification of HMLE_shGFP_dsRed and HMLE_shEcad_GFP cells that were mixed in a 1:1 ratio and treated with Doxorubicin or Dev4. Following a 5 day treatment, the percentages of dsRed-positive and GFP-positive cells were quantified by FACS.
Even though Cmp302 and Cmp308 were selective for IDMS cells when cultured alone, tumors are comprised of heterogeneous populations of cells that could affect the sensitivity or selectivity of the applied chemicals. Therefore GFP-labeled IDMS cells were co-cultured with dsRed-labeled control epithelial cells and then applied Cmp302 and Cmp308.

[6] = test system: MDA-MB-157 cells (CD44hiCD24lo and CD44loCD24hi fractions); experiment: Flow cytometry of CD44/CD24 fractions of treated MDA-MB-157 cells; format: cell-based, human; details: suspension, 36 h; FIG. 1J
Method: (J) MDA-MB-157 cells were treated with Cmp308, paclitaxel or DMSO solvent in suspension for 36 h and analyzed by flow cytometry for CD44 and CD24 expression. The percentage of CD44^hiCD24^lo and CD44^loCD24^hi cells in were quantified and normalized relative to DMSO controls.
FACS analysis was performed according to the manufacturer's protocol (BD Biosciences). Reagents used in FACS were as follows: APC-conjugated anti-CD44 antibody (clone G44-26), PE-conjugated anti-CD24 antibody (clone ML5), and propidium iodide (5 μg/ml) (BD Bioscience).

[7] = test system: MDA-MB-157 cells; experiment: Dose-response cell survival of MDA-MB-157 cells in suspension versus adherent culture; format: cell-based, human; details: 3 days; FIG. 1I
Method: (I) Dose-response curves of MDA-MB-157 cells cultured in adherent or suspension conditions and treated with 8 doses of paclitaxel, Cmp302 or Cmp308 for 3 days. Cell survival was determined using an ATP-based luminescence assay.
as §1
Next, it was determined whether the preferential toxicity of these compounds was unique to the oncogenic modifications of the HMLE breast epithelial cell system. Accordingly, a model was developed in which human breast carcinoma cells progressed towards the IDMS state in the absence of genetic modifications by altering their extracellular contextual signals. […] However, this line adopts an IDMS state when detached from its substratum and cultured in suspension (FIG. 1F). […] This morphologic alteration was accompanied by upregulation of mesenchymal markers (fibronectin) and downregulation of epithelial proteins (cytokeratin 8/18 and E-cadherin) (FIG. 1G). […]

[8] = test system: protein secretion of SUM159 cells; experiment: 35S-methionine/cysteine labeling of secreted proteins, pretreated SUM159 cells; format: cell-based, human; details: pretreatment 3 days, recovery 3 days
Method: (B) Autoradiograph showing ^35S-methionine/cysteine-labeled secreted proteins in SUM159 cells that were pretreated with 1 μg/ml Tunicamycin, 10 nM Thapsigargin, 0.1 μM A23187 or DMSO vehicle for 3 days and allowed to recover in the absence of chemical for 3 days prior to the ^35S-methionine/cysteine labeling.
as §2

[9] = test system: SUM159 cancer cells; experiment: Tumorsphere formation of pretreated SUM159 cells; format: cell-based, human; details: pretreatment 3 days (1 μg/ml Tunicamycin, 10 nM Thapsigargin), 3 days recovery
Method: (A) Representative brightfield images and quantification of tumorsphere formation of SUM159 cancer cells treated with 5 nM Paclitaxel, 1 μg/ml Tunicamycin, 10 nM Thapsigargin, or DMSO vehicle for 3 days followed by another 3 days of recovery in regular medium. Scale bar: 50 μm
Mammosphere formation assays were performed as described (Dontu et al., 2003), but with 0.6% methylcellulose (Stem Cell Technologies). Five thousand cells were plated per well in low-adherence 24-well plates and cultured for 5-8 days prior to being counted and photographed.
(§3) To determine whether chemical ER perturbants could abrogate the malignancy of IDMS cells, SUM159 cancer cells (derived from a primary anaplastic Basal-B breast carcinoma) were treated with tunicamycin, thapsigargin or paclitaxel at their respective IC75 doses. Cells were then allowed to recover in the absence of treatment prior to subjecting them to functional assays for IDMS-related phenotypes.

[10] = test system: SUM159 cells; experiment: Dose-response of pretreated SUM159 cells to paclitaxel or doxorubicin; format: cell-based, human; details: pretreated SUM159, then paclitaxel or doxorubicin 3 days; FIG. 7D
Method: (D) Dose-response curves of SUM159 cells pre-treated as in (C) and then treated with 8 doses of paclitaxel or doxorubicin for 3 days. Cell survival was determined using an ATP-based luminescence assay.
as §1

[11] = test system: SUM159 cancer cells; experiment: Transwell migration of pretreated SUM159 cells; format: cell-based, human; details: 5 h migration
Method: (B) Representative images of crystal violet staining of SUM159 cells following transwell migration assay. Transwell migration assay was performed on SUM159 cancer cells treated as in (A). Cells that have migrated for 5 h following seeding into 8 μm pore inserts were visualize and quantified. Scale bar: 50 μm
as §3

[12] = 6 h treatment (Cmp302, Dev4, Dev2) or 4 h (DTT, A23187, tunicamycin, thapsigargin), IDMS versus non-IDMS cells

O[C@H](CS)[C@H](O)CS (racemic) [DTT, dithiothreitol]
killing of IDMS cells relative to control HMLE cells [1]: selective lethality
UPR signaling (XBP1 splicing, eIF2α phosphorylation, ATF6 activation) [2, 12]: selectively induced

CNc1ccc2oc(C[C@H]3O[C@@]4(CC[C@H]3C)O[C@H]([C@H](C)C(=O)c3ccc[nH]3)[C@H](C)C[C@H]4C)nc2c1C(=O)O [A23187]
killing of IDMS cells relative to control HMLE cells [1]: selective lethality
UPR signaling (XBP1 splicing, eIF2α phosphorylation, ATF6 activation) [2]: selectively induced

C[C@H]1CCC/C=C/[C@@H]2C[C@H](O)C[C@H]2[C@H](O)/C=C/C(=O)O1 [Brefeldin-A, Brefeldin A]
protein secretion [3]: completely abolished protein secretion

O=C(/C=C/c1ccccc1)NC(NC(=S)Nc1cccc2cccnc12)C(Cl)(Cl)Cl (centres unmarked) [Salubrinal, salubrinal]
sensitization to thapsigargin treatment [4]: further sensitized HMLER-Twist IDMS, but not control cells

COc1cccc2c1C(=O)c1c(O)c3c(c(O)c1C2=O)C[C@@](O)(C(=O)CO)C[C@@H]3O[C@H]1C[C@H](N)[C@H](O)[C@H](C)O1 [doxorubicin]
effect on IDMS cells in mixed populations [5]: selective expansion of IDMS cells

CC(=O)O[C@H]1C(=O)[C@@]2(C)[C@H]([C@H](OC(=O)c3ccccc3)[C@]3(O)C[C@H](OC(=O)[C@H](O)[C@@H](NC(=O)c4ccccc4)c4ccccc4)C(C)=C1C3(C)C)[C@]1(OC(C)=O)CO[C@@H]1C[C@@H]2O [paclitaxel]
preferential toxicity towards CD44hiCD24lo versus CD44loCD24hi fraction [6]: did not exhibit this preferential toxicity
effect on IDMS cells in mixed populations [5]: selective expansion of IDMS cells
toxicity towards IDMS MDA-MB-157 cells in suspension relative to non-IDMS cells in adherent conditions [7]: decreased toxicity

C/C=C(/C)C(=O)O[C@H]1C(C)=C2[C@H]([C@@H]1OC(=O)CCCCCCC)[C@@](C)(OC(C)=O)C[C@H](OC(=O)CCC)[C@@]1(O)[C@H]2OC(=O)[C@@]1(C)O [thapsigargin]
protein secretion relative to paclitaxel- and DMSO-treated cells [8]: strongly inhibited
killing of IDMS cells relative to control HMLE cells [1]: selective lethality
tumorsphere-forming ability relative to paclitaxel- or DMSO-treated cells [9]: significantly reduced
sensitization of pretreated cells to chemotherapy [10]: sensitized SUM159 cells to paclitaxel and doxorubicin
UPR signaling (XBP1 splicing, eIF2α phosphorylation, ATF6 activation) [2, 12]: selectively induced
migratory ability relative to paclitaxel-pretreated cells [11]: strongly impaired

tunicamycin
protein secretion relative to paclitaxel- and DMSO-treated cells [8]: strongly inhibited
IC50 (toxicity) ([1]; both IDMS and control HMLE cells, data not shown): < 10^−10 g/ml
tumorsphere-forming ability relative to paclitaxel- or DMSO-treated cells [9]: significantly reduced
sensitization of pretreated cells to chemotherapy [10]: sensitized SUM159 cells to paclitaxel and doxorubicin
UPR signaling (XBP1 splicing, eIF2α phosphorylation, ATF6 activation) [2, 12]: more readily induced in IDMS cells
dose required for UPR induction relative to toxic dose ([2]; IDMS cells, FIG. 3E): 100 fold
migratory ability relative to paclitaxel-pretreated cells [11]: strongly impaired
